Entries after “also recorded” stand apart in the source; their conditions may differ.
Legend:
[1] = biological target: T1, CDC25B (Homo sapiens, UniProt P30305); experiment: Intrinsic fluorescence quenching of recombinant CDC25B catalytic domain (Stern-Volmer); format: binding
T1 sequence (P30305 377-551 isoform P30305-2 limits assumed): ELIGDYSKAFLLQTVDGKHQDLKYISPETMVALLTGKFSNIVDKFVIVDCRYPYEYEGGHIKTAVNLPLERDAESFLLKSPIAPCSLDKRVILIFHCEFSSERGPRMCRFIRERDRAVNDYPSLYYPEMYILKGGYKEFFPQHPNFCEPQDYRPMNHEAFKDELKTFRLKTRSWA
Procedure: Fluorescence spectra were recorded at 20 °C using a computer-assisted Cary Eclipse spectrofluorimeter (Varian, Palo Alto, CA, USA) equipped with an electronic temperature controller. The excitation wavelength was set at 280 nm and the excitation and emission slits were set at 10 and 20 nm, respectively. A 500 µL final volume of a 0.2 µM solution of CDC25B or CDC25B-C473S dissolved in 20 mM Tris•HCl, pH 7.8, 0.5 mM TCEP was directly prepared in the fluorimetric cuvette in the absence or in the presence of OMFP and/or some NPA derivatives. Serial pre-dilutions of the NPA derivatives or OMFP at increasing concentration were prepared in DMSO or methanol, respectively. Alongside, a convenient amount of the enzyme pre-dilution was prepared just before its usage for the experiment and stored on ice. When the combined effect of NPA derivative and OMFP was investigated, two enzyme pre-dilutions were prepared in the absence or in the presence of 5 µM OMFP. In order to evaluate the specific effect produced by any addition of solvent/ligand on the intrinsic fluorescence of the enzyme, 495 µL of the enzyme pre-dilution were placed in the fluorimetric cuvette and the relative spectrum was recorded; after the addition of 5 µL of each pre-dilution of solvent/ligand and fast mixing, the spectrum was recorded again. This procedure, repeated for each experimental point, allowed a normalisation of the specific effects produced by solvent/ligands. Furthermore, a correction was also applied for the little inner-filter effect due to the absorbance at 280 nm of the NPA derivative used at different concentrations; on the other hand, no correction was necessary for OMFP. All spectra, recorded at a scan speed of 120 nm/min, were normalised and corrected.

[2] = test system: cytochrome c in A2058 cells; experiment: Cytochrome c subcellular localisation (immunofluorescence and Western blotting of fractions); format: cell-based, human; conditions: 10 µM, 24 h
Procedure: (§1) To obtain the total protein extract, cells were seeded into 6-well-plates (3 × 10^5 cells/plate) for 24 h at 37 °C and then treated with 4a or 0.5% (v/v) DMSO. After treatment, cells were harvested, washed with PBS, and then lysed in ice-cold modified radio immunoprecipitation assay (RIPA) buffer (50 mM Tris•HCl, pH 7.4, 150 mM NaCl, 1% Nonidet P-40, 0.25% sodium deoxycholate, 1 mM Na3VO4 and 1 mM NaF), supplemented with protease inhibitors and incubated for 30 min on ice. The supernatant, obtained after centrifugation at 13200 g for 30 min at 4 °C, constituted the total protein extract. Protein concentration was determined by the Bradford method, using bovine serum albumin (BSA) as standard. To obtain the cytosolic and mitochondrial fractions, cells were plated at a density of 2 × 10^6 cells/plate for 24 h at 37 °C. After the treatment with 4a or 0.5% (v/v) DMSO, cells were harvested, washed in PBS, and then resuspended in buffer A (5 mM Hepes, pH 7.4, 250 mM mannitol, 0.5 mM EGTA, 0.1% BSA), supplemented with protease inhibitors, and homogenised. The homogenate was centrifuged at 600 g for 5 min at 4 °C and the supernatant was then centrifuged at 10300 g for 10 min at 4 °C. The resulting supernatant represented the cytosolic fraction, whereas the pellet, constituting the mitochondrial fraction was resuspended in RIPA buffer. Protein concentration was determined as previously indicated. Equal amounts of total, cytosolic or mitocondrial protein extracts were used for Western blotting analysis. Briefly, protein samples were dissolved in SDS-reducing loading buffer, run on sodium dodecylsulfate polyacrylamide gel electrophoresis (SDS/PAGE), and then transferred to Immobilon P membrane (Millipore, Saint Louis, MO, USA). The filter was incubated with the specific primary antibody at 4 °C overnight and then with the secondary antibody at room temperature for 1 h. Membranes were then analysed by an enhanced chemiluminescence reaction using WesternBright ECL (Advansta, San Jose, CA, USA) according to manufacturer’s instructions; signals were visualised by autoradiography. The analysis of pAkt protein levels was performed as previously described. Briefly, filters were first incubated with the anti-pAkt primary antibody and then with the secondary antibody and membranes were analysed by an enhanced chemiluminescence reaction as previously indicated. The same filters were then stripped, using AbCam (Cambridge, UK) stripping solution, pH 2 (200 mM glycine, 3.5 mM SDS, 1% Tween-20) at 45 °C for 30 min, washed 3 times with PBS-Tween 0.1%, incubated with anti-Akt primary antibody and then with the relative secondary antibody. Signals were detected as previously specified.
(§2) Immunofluorescence experiments were carried out essentially as previously described. […]

[3] = test system: cytochrome c in A375 cells; experiment: as above; format: cell-based, human; conditions: 10 µM, 24 h
Procedure: as §1, §2

[4] = test system: A2058 and A375 melanoma cell lines; set-up: method as in PMID 31294975; conditions: 10 µM; cited from earlier work

KSV (Stern-Volmer constant) ([1]; 0.2 µM wild-type CDC25B, emission 357 nm, 20 °C, no OMFP): 0.010 µM⁻¹ | Kd ([1]; reciprocal of KSV, inhibitor concentration leading to 50% quenching of CDC25B emission, read-out: K′D of the complex, Free CDC25B•inhibitor): > 50 µM
Structure (SMILES): CCOC(=O)c1cccc(Nc2cc(OC)cc3ccccc23)c1 [4a]
cytochrome c localisation, Western blotting of cytosolic and mitochondrial extracts [2]: significant cytosolic translocation | cytochrome c localisation, immunofluorescence [2]: induces a cytosolic translocation of cytochrome c | cytochrome c localisation, Western blotting of cytosolic and mitochondrial extracts [3]: significant cytosolic translocation | cytochrome c localisation, immunofluorescence [3]: induces a cytosolic translocation of cytochrome c | cell cycle of melanoma cells [4]: arrest of cells in G2/M phase; also recorded: arrest in the G2/M phase; also recorded: arrested the cell cycle of melanoma cells in G2/M phase | cell growth of melanoma cells [4]: reduced the cell growth rate; also recorded: significantly reduced; also recorded: significant antiproliferative action | pCDK1 protein levels [4]: increase

Source: article PMC7580834, “Inhibition mechanism of naphthylphenylamine derivatives acting on the CDC25B dual phosphatase and analysis of the molecular processes involved in the high cytotoxicity exerted by one selected derivative in melanoma cells” (Journal of Enzyme Inhibition and Medicinal Chemistry, 2020)
